{"source": "patent US6716392B1", "about": "“Preservation of liquid biological samples” (The United States of America as represented by the United …, priority 1995, dated 2004)", "key": {"[1]": {"experiment": "Stability of spiked APAP and AP in saliva (HPLC)", "format": "physicochemical", "text": "Non-invasive estimates of physiological and pharmacokinetic alterations may be obtained by measuring the concentrations of certain compounds and their metabolites in liquid biological samples (e.g., saliva). For example, gastrointestinal activity and the absorption, bioavailability and elimination of acetaininophen (“APAP”) may be assessed by measuring APAP concentrations in liquid biological samples following oral administration of APAP. In addition, hepatic metabolism may be measured indirectly from the clearance of orally administered antipyrine (“AP”) from liquid biological samples. The accuracy of such non-invasive estimates depends, in part, upon the stability of the reference compound or metabolite in the liquid biological sample. Therefore, the effectiveness of a particular preservative may be evaluated by determining the degradation time course for a known quantity of a specific reference compound.\nThe effectiveness of the preservative of the present invention was evaluated by measuring the stability of APAP and AP in saliva samples stored at −20° C. as compared to saliva samples stored at room temperature and containing sodium benzoate and citric acid in an amount of 0.25% and 0.05% of the sample (weight/volume), respectively (“P1”). Saliva samples were collected from forty subjects, pooled, aliquoted and spiked with APAP (5 or 25 μg/ml) or AP (5 or 50 μg/ml). Duplicate samples were analyzed by high performance liquid chromatography on days 1, 14, 28, 60, 120, 180, 240 and 360 (see Tables 1-4 below)."}, "[2]": {"format": "physicochemical", "conditions": "for storage time over which concentrations in saliva were comparable / preserved: room temperature in the presence of P1 versus −20° C.; for SALIVA STABILITY OF MELATONIN: human", "protocol": "The effectiveness of the preservative of the present invention in maintaining the stability of hormones in liquid biological samples was evaluated by measuring the maintenance of base-line physiological levels of melatonin and cortisol in saliva. Aliquots (non-spiked) of the pooled saliva samples containing base-line physiological levels of melatonin and cortisol were stored −20° C. or at room temperature and containing sodium benzoate and citric acid in an amount of 0.25% and 0.05% of the sample (weight/volume), respectively (“P1”). Duplicate samples were analyzed by radioimmunoassay on days 1, 14, 28, 60, 120, 180, 240 and 360 (see Tables 5 and 6 below)."}}, "note": "Read-outs that look alike come from different tables or passages of the source.", "data": [{"compound": "CC(=O)Nc1ccc(O)cc1", "note": "[APAP, acetaminophen]", "values": [{"measurement": "Saliva Stability (APAP concentration)", "setting": "[1]; 5 μg/ml APAP, No Preservative, −20° C., Day 01", "result": "5.83 ± 0.08", "unit": "µg/mL"}, {"measurement": "Saliva Stability (APAP concentration)", "setting": "[1]; 5 μg/ml APAP, No Preservative, −20° C., Day 14", "result": "6.59 ± 0.61", "unit": "µg/mL"}, {"measurement": "Saliva Stability (APAP concentration)", "setting": "[1]; 5 μg/ml APAP, No Preservative, −20° C., Day 28", "result": "5.81 ± 0.08", "unit": "µg/mL"}, {"measurement": "Saliva Stability (APAP concentration)", "setting": "[1]; 5 μg/ml APAP, No Preservative, −20° C., Day 60", "result": "5.82 ± 0.20", "unit": "µg/mL"}, {"measurement": "Saliva Stability (APAP concentration)", "setting": "[1]; 5 μg/ml APAP, No Preservative, −20° C., Day 120", "result": "5.54 ± 0.33", "unit": "µg/mL"}, {"measurement": "Saliva Stability (APAP concentration)", "setting": "[1]; 5 μg/ml APAP, No Preservative, −20° C., Day 180", "result": "3.77 ± 0.03", "unit": "µg/mL"}, {"measurement": "Saliva Stability (APAP concentration)", "setting": "[1]; 5 μg/ml APAP, No Preservative, −20° C., Day 240", "result": "4.17 ± 0.16", "unit": "µg/mL"}, {"measurement": "Saliva Stability (APAP concentration)", "setting": "[1]; 5 μg/ml APAP, No Preservative, −20° C., Day 360", "result": "5.14 ± 0.09", "unit": "µg/mL"}, {"measurement": "Saliva Stability (APAP concentration)", "setting": "[1]; 5 μg/ml APAP, P1, RT, Day 01", "result": "5.49 ± 0.09", "unit": "µg/mL"}, {"measurement": "Saliva Stability (APAP concentration)", "setting": "[1]; 5 μg/ml APAP, P1, RT, Day 14", "result": "5.38 ± 0.14", "unit": "µg/mL"}, {"measurement": "Saliva Stability (APAP concentration)", "setting": "[1]; 5 μg/ml APAP, P1, RT, Day 28", "result": "4.83 ± 1.79", "unit": "µg/mL"}, {"measurement": "Saliva Stability (APAP concentration)", "setting": "[1]; 5 μg/ml APAP, P1, RT, Day 60", "result": "6.89 ± 0.94", "unit": "µg/mL"}, {"measurement": "Saliva Stability (APAP concentration)", "setting": "[1]; 5 μg/ml APAP, P1, RT, Day 120", "result": "5.40 ± 0.20", "unit": "µg/mL"}, {"measurement": "Saliva Stability (APAP concentration)", "setting": "[1]; 5 μg/ml APAP, P1, RT, Day 180", "result": "4.37 ± 0.08", "unit": "µg/mL"}, {"measurement": "Saliva Stability (APAP concentration)", "setting": "[1]; 5 μg/ml APAP, P1, RT, Day 240", "result": "4.29 ± 0.25", "unit": "µg/mL"}, {"measurement": "Saliva Stability (APAP concentration)", "setting": "[1]; 5 μg/ml APAP, P1, RT, Day 360", "result": "5.31 ± 0.43", "unit": "µg/mL"}, {"measurement": "Saliva Stability (APAP concentration)", "setting": "[1]; 25 μg/ml APAP, No Preservative, −20° C., Day 01", "result": "24.88 ± 0.22", "unit": "µg/mL"}, {"measurement": "Saliva Stability (APAP concentration)", "setting": "[1]; 25 μg/ml APAP, No Preservative, −20° C., Day 14", "result": "25.60 ± 0.41", "unit": "µg/mL"}, {"measurement": "Saliva Stability (APAP concentration)", "setting": "[1]; 25 μg/ml APAP, No Preservative, −20° C., Day 28", "result": "25.25 ± 0.48", "unit": "µg/mL"}, {"measurement": "Saliva Stability (APAP concentration)", "setting": "[1]; 25 μg/ml APAP, No Preservative, −20° C., Day 60", "result": "25.02 ± 0.4", "unit": "µg/mL"}, {"measurement": "Saliva Stability (APAP concentration)", "setting": "[1]; 25 μg/ml APAP, No Preservative, −20° C., Day 120", "result": "25.45 ± 0.49", "unit": "µg/mL"}, {"measurement": "Saliva Stability (APAP concentration)", "setting": "[1]; 25 μg/ml APAP, No Preservative, −20° C., Day 180", "result": "16.71 ± 0.50", "unit": "µg/mL"}, {"measurement": "Saliva Stability (APAP concentration)", "setting": "[1]; 25 μg/ml APAP, No Preservative, −20° C., Day 240", "result": "18.20 ± 0.14", "unit": "µg/mL"}, {"measurement": "Saliva Stability (APAP concentration)", "setting": "[1]; 25 μg/ml APAP, No Preservative, −20° C., Day 360", "result": "24.37 ± 0.36", "unit": "µg/mL"}, {"measurement": "Saliva Stability (APAP concentration)", "setting": "[1]; 25 μg/ml APAP, P1, RT, Day 01", "result": "24.94 ± 0.56", "unit": "µg/mL"}, {"measurement": "Saliva Stability (APAP concentration)", "setting": "[1]; 25 μg/ml APAP, P1, RT, Day 14", "result": "24.63 ± 0.12", "unit": "µg/mL"}, {"measurement": "Saliva Stability (APAP concentration)", "setting": "[1]; 25 μg/ml APAP, P1, RT, Day 28", "result": "27.3 ± 1.54", "unit": "µg/mL"}, {"measurement": "Saliva Stability (APAP concentration)", "setting": "[1]; 25 μg/ml APAP, P1, RT, Day 60", "result": "29.88 ± 3.58", "unit": "µg/mL"}, {"measurement": "Saliva Stability (APAP concentration)", "setting": "[1]; 25 μg/ml APAP, P1, RT, Day 120", "result": "24.20 ± 0.47", "unit": "µg/mL"}, {"measurement": "Saliva Stability (APAP concentration)", "setting": "[1]; 25 μg/ml APAP, P1, RT, Day 180", "result": "17.55 ± 0.46", "unit": "µg/mL"}, {"measurement": "Saliva Stability (APAP concentration)", "setting": "[1]; 25 μg/ml APAP, P1, RT, Day 240", "result": "17.21 ± 0.36", "unit": "µg/mL"}, {"measurement": "Saliva Stability (APAP concentration)", "setting": "[1]; 25 μg/ml APAP, P1, RT, Day 360", "result": "25.70 ± 0.55", "unit": "µg/mL"}]}, {"compound": "C[C@]12CCC(=O)C=C1CC[C@@H]1[C@@H]2[C@@H](O)C[C@@]2(C)[C@H]1CC[C@]2(O)C(=O)CO", "note": "[Cortisol, cortisol]", "values": [{"measurement": "storage time over which concentrations in saliva were comparable / preserved", "setting": "[2]", "result": 180, "unit": "days"}]}, {"compound": "COc1ccc2[nH]cc(CCNC(C)=O)c2c1", "note": "[Melatonin, melatonin]", "values": [{"measurement": "SALIVA STABILITY OF MELATONIN", "setting": "[2]; 28 day", "result": "31.71 ± 4.4", "unit": "pg/mL"}, {"measurement": "SALIVA STABILITY OF MELATONIN", "setting": "[2]; 28 days", "result": "29.43 ± 5.9", "unit": "pg/mL"}, {"measurement": "storage time over which concentrations in saliva were comparable / preserved", "setting": "[2]", "result": 180, "unit": "days"}]}]}
